Laboratory results reported in PubChem BioAssay (NCI).
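Five concentrations, 48 hours, 96-well plates. Abbreviation: GI50, concentration required for 50% inhibition of growth. TGI denotes the concentration required for complete inhibition of growth.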

What was measured:
Test in all cases: growth of human tumour cells (NCI), 48 h
OVCAR-4 ovarian = test system: OVCAR-4 ovarian
UO-31 renal = test system: UO-31 renal
HOP-92 NSCLC = test system: HOP-92 NSCLC
786-0 renal = test system: 786-0 renal
HT29 colon = test system: HT29 colon
MOLT-4 leukemia = test system: MOLT-4 leukemia
HCC-2998 colon = test system: HCC-2998 colon
HOP-62 NSCLC = test system: HOP-62 NSCLC
HCT-15 colon = test system: HCT-15 colon

| Structure (SMILES) | GI50 (OVCAR-4 ovarian) [µM] | TGI (OVCAR-4 ovarian) [µM] | GI50 (UO-31 renal) [µM] | TGI (UO-31 renal) [µM] | GI50 (HOP-92 NSCLC) [µM] | TGI (HOP-92 NSCLC) [µM] | GI50 (786-0 renal) [µM] | TGI (786-0 renal) [µM] | GI50 (HT29 colon) [µM] | TGI (HT29 colon) [µM] | GI50 (MOLT-4 leukemia) [µM] | TGI (MOLT-4 leukemia) [µM] | GI50 (HCC-2998 colon) [µM] | TGI (HCC-2998 colon) [µM] | GI50 (HOP-62 NSCLC) [µM] | TGI (HOP-62 NSCLC) [µM] | GI50 (HCT-15 colon) [µM] | TGI (HCT-15 colon) [µM] |
| --- | --- | --- | --- | --- | --- | --- | --- | --- | --- | --- | --- | --- | --- | --- | --- | --- | --- | --- |
| CC[O-].CC[O-].O=C1C(=C([O-])c2ccccc2)C(=O)c2ccccc21.O=C1C(=C([O-])c2ccccc2)C(=O)c2ccccc21.[Ti+4] | > 100 | > 100 | > 100 | > 100 | 95.1 | > 100 | > 100 | > 100 | > 100 | > 100 | > 100 | > 100 | > 100 | > 100 | > 100 | > 100 | 52.9 | > 100 |
| CSc1nc2c(c(O)c(C)c(=O)n2C2OC(COC(C)=O)C(OC(C)=O)C(OC(C)=O)C2OC(C)=O)c(=O)n1C (stereo unspecified) |  | > 100 |  | > 100 |  | > 100 |  | > 100 |  | > 100 |  |  |  | > 100 |  | > 100 |  | > 100 |
| COC(=O)c1nc(NN)[nH]c(=O)c1CCCCCc1c(C(=O)OC)[nH]c(NN)cc1=O |  | > 100 |  | > 100 |  | > 100 |  | > 100 |  | > 100 |  | > 100 |  | > 100 |  | > 100 |  | > 100 |
| CC12CC3(C)CC(C)(C1)CC(N=[N+]=[N-])(C2)C3 |  | > 100 |  | > 100 |  | > 100 |  | > 100 |  | > 100 |  | > 100 |  | > 100 |  | > 100 |  |  |
| O=C(CC(C(=O)c1cccs1)c1ccc2c(c1)OCO2)c1ccc(Br)cc1 (stereo unspecified) |  | > 100 |  | > 100 |  |  |  | > 100 |  |  |  | > 100 |  | > 100 |  | > 100 |  | > 100 |
| Cc1cc(Cl)ccc1NC(=O)C(=O)Cc1nc2ccc(C(=O)c3ccccc3)cc2[nH]c1=O |  | > 100 |  | > 100 |  | > 100 |  | > 100 |  | > 100 |  | > 100 |  | > 100 |  | > 100 |  | > 100 |
| Clc1ccc([O][In]([O]c2ccc(Cl)cn2)[O]c2ccc(Cl)cn2)nc1 | > 100 | > 100 | > 100 | > 100 |  |  | > 100 | > 100 | > 100 | > 100 |  |  | > 100 | > 100 |  |  | > 100 | > 100 |
| COc1ccc(C(C2=C(C)C(=O)c3ccccc3C2=O)c2ccc(C(C)C)cc(=O)c2O)cc1 (stereo unspecified) |  | > 100 |  | 5.12 |  | 10.3 |  | 6.26 |  | 35.3 |  | > 100 |  |  |  | 6.65 |  | 32.2 |
| CC(C)N(C(=O)C12C3C4C1C1C2C3C41C(O)C(C)(C)C)C(C)C (stereo unspecified) |  |  |  | > 50 |  | > 50 |  | > 50 |  | > 50 |  | > 50 |  | > 50 |  | > 50 |  | > 50 |
| Fc1cccc(Cl)c1C1SCc2nc3ccccc3n21 (stereo unspecified) |  | > 100 |  | > 100 |  | 37.8 |  | > 100 |  | > 100 |  | 52.1 |  | > 100 |  | > 100 |  | > 100 |
| CC(=O)N(CCN)CCN |  | > 10 |  | > 10 |  | > 10 |  | > 10 |  |  |  | > 10 |  | > 10 |  | > 10 |  | > 100 |
| C/C(=N/N(C=O)C[n+]1ccccc1)C(CN(CC(C)C)CC(C)C)C(=O)Nc1ccc(C)cc1C (stereo unspecified) |  | > 100 |  | 84.3 |  | > 100 |  | > 100 |  | > 100 |  | > 100 |  | > 100 |  | > 100 |  |  |
| CC(C)N(C(C)C)[PH+]1O[PH+](N(C(C)C)C(C)C)O[PH+](N(C(C)C)C(C)C)O[PH+](N(C(C)C)C(C)C)O[PH+](N(C(C)C)C(C)C)O1.[C-]#[O+].[C-]#[O+].[C-]#[O+].[C-]#[O+].[C-]#[O+].[C-]#[O+].[C-]#[O+].[Cr].[Cr] (stereo unspecified) | > 100 | > 100 | > 100 | > 100 | > 100 | > 100 | > 100 | > 100 | > 100 | > 100 | > 100 | > 100 | > 100 | > 100 | > 100 | > 100 | > 100 | > 100 |
| Cc1cc(O)c2c(c1)C(O)(c1ccc3c(c1O)C(=O)c1c(O)cc(C)cc1C3(O)C1OC(CO)C(O)C(O)C1O)c1cccc(O)c1C2=O (stereo unspecified) |  | 26.4 |  | 32 |  | 20.4 |  | 29.2 |  | 38.4 |  | 32.6 |  | 29.5 |  | 28.9 |  | 26.1 |
| COc1cc2nncc(Sc3cnnc4ccccc34)c2cc1OC |  | > 100 |  | 47.9 |  | > 100 |  | 96.9 |  | 59.1 |  | 54.5 |  | 32.9 |  | > 100 |  | 72.2 |
| O=C(C(=O)c1ccc(Cc2ccc(C(=O)C(=O)c3ccccc3)cc2)cc1)c1ccccc1 |  | > 100 |  | > 100 |  | > 100 |  | > 100 |  | > 100 |  |  |  | > 100 |  | > 100 |  | > 100 |

| Structure (SMILES) | GI50 (OVCAR-4 ovarian) [µM] | TGI (OVCAR-4 ovarian) [µM] | GI50 (UO-31 renal) [µM] | TGI (UO-31 renal) [µM] | GI50 (HOP-92 NSCLC) [µM] | TGI (HOP-92 NSCLC) [µM] | GI50 (786-0 renal) [µM] | TGI (786-0 renal) [µM] | GI50 (HT29 colon) [µM] | TGI (HT29 colon) [µM] | GI50 (MOLT-4 leukemia) [µM] | TGI (MOLT-4 leukemia) [µM] | GI50 (HCC-2998 colon) [µM] | TGI (HCC-2998 colon) [µM] | GI50 (HOP-62 NSCLC) [µM] | TGI (HOP-62 NSCLC) [µM] | GI50 (HCT-15 colon) [µM] | TGI (HCT-15 colon) [µM] |
| --- | --- | --- | --- | --- | --- | --- | --- | --- | --- | --- | --- | --- | --- | --- | --- | --- | --- | --- |
| O=c1nc(-c2ccccc2)c2c3c(cccn13)CCC2 |  | > 100 |  | > 100 |  | > 100 |  | > 100 |  | > 100 |  | > 100 |  | > 100 |  | > 100 |  | > 100 |
| CCC1(Br)C(=O)NC(=O)N(C2CC(O)C(CO)O2)C1N=[N+]=[N-] (stereo unspecified) |  | > 100 |  | > 100 |  | > 100 |  | > 100 |  | > 100 |  | > 100 |  | > 100 |  | > 100 |  |  |
| O=[N+]([O-])c1ccc(N=Nc2c(O)[nH]c3ccc([N+](=O)[O-])cc23)cc1 |  | 38.6 |  | 59.8 |  | 25.6 |  | 17 |  | 51.8 |  | > 100 |  |  |  | 38.3 |  | > 100 |
| CC1(C)C(=O)C(O)=CC2C1=CCC1C2(C)C(=O)CC2(C)C(C(C)(O)C(=O)CC(O)C(C)(C)O)C(O)CC12C (stereo unspecified) |  | 11.8 |  | 4.49 |  | 4.56 |  | 5.65 |  | > 64.5 |  | > 81.8 |  | 14 |  | 11.5 |  | > 88.7 |
| N#CC(C#N)SCc1ccccc1 |  | > 100 |  | > 100 |  | > 87.4 |  | > 100 |  | 62.8 |  | > 100 |  | > 100 |  | > 100 |  | > 92 |
| COC(=O)C1=CCON(c2ccccc2)C1c1ccccc1 (stereo unspecified) |  |  |  | > 100 |  |  |  | > 100 |  | > 100 |  | > 100 |  | > 100 |  | > 100 |  | > 100 |
| CCc1ccccc1NC(=O)C(=O)C(C(=O)c1ccc(OC)cc1)c1ccc(OC)cc1 (stereo unspecified) |  | > 100 |  | > 100 |  |  |  | > 100 |  | > 100 |  | > 100 |  | > 100 |  | > 100 |  | > 100 |
| O=C1c2ccccc2N2OC3(N4CCCC4)CCCC3C12c1ccccc1 (stereo unspecified) |  | > 100 |  | > 100 |  | > 100 |  | > 100 |  | > 100 |  | > 100 |  | > 100 |  | > 100 |  | > 100 |
| O=C(c1ccccc1)c1c(CC(O)c2cccnc2)n(C(=O)c2ccccc2)c2ccccc12 (stereo unspecified) |  | 42.4 |  | 32.6 |  | 30.9 |  | 99.4 |  | 35.6 |  | 47.7 |  | 35 |  | 30.4 |  | 60.3 |
| Cc1cc([N+](=O)[O-])c(C)c2c1[nH]c1ccc(/C(CCC3CCCC3)=N\N)cc12 |  | 53.9 |  | 30 |  |  |  | 28 |  | > 100 |  | 39 |  | 30.9 |  | 36.7 |  | 29.2 |
| Cc1c(C)c2cc3c(=O)ccoc3c(C)c2oc1=O |  |  |  | > 100 |  |  |  | > 100 |  |  |  | 92.7 |  | > 100 |  | > 100 |  | > 100 |
| O=C1[C@@H](c2ccc(Cl)cc2)[C@H]2CC=C[C@H]2N1O |  |  |  | > 100 |  |  |  | > 100 |  | > 100 |  | > 100 |  | > 100 |  | > 100 |  | > 100 |
| COc1ccc([C@H]2CC(=O)N3CCCC3N2)cc1 (stereo partly specified) |  | > 100 |  | > 100 |  | > 100 |  | > 100 |  | > 100 |  | > 100 |  | > 100 |  | > 100 |  | > 100 |
| Nc1nc2c(ncn2Cc2ccccc2CCO)c(=O)[nH]1 |  | > 100 |  | > 100 |  | > 100 |  | > 100 |  | > 100 |  | > 100 |  | > 100 |  | > 100 |  | > 100 |
| Cc1cc(C)c2c(c1)CN1CN2Cc2cc(C)cc(C)c21 |  | 50.8 |  | 43.5 |  |  |  | 34.7 |  | 29.9 |  | 63.1 |  |  |  | 53.2 |  |  |
| Nc1cc2c3c(cccc3c1)NC2=O |  | > 100 |  | > 100 |  | > 100 |  | > 100 |  | > 100 |  | > 100 |  | > 100 |  | > 100 |  | > 100 |
